Data taken from PubChem BioAssay (NCI).
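Protocol summary: plate cells (96-well), add compound at 5 concentrations, incubate 48 h, interpolate endpoints linearly. TGI: concentration producing complete growth inhibition.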

How the values were obtained:
Test in all cases: NCI-60 cell line screen, 48 h
SK-MEL-5 melanoma = system: SK-MEL-5 melanoma
SK-OV-3 ovarian = system: SK-OV-3 ovarian
HOP-62 NSCLC = system: HOP-62 NSCLC
OVCAR-5 ovarian = system: OVCAR-5 ovarian
KM12 colon = system: KM12 colon
SF-268 CNS = system: SF-268 CNS
786-0 renal = system: 786-0 renal
HS 578T breast = system: HS 578T breast
NCI-H23 lung = system: NCI-H23 lung
NCI-H522 lung = system: NCI-H522 lung
LOX IMVI melanoma = system: LOX IMVI melanoma
U251 CNS = system: U251 CNS
CCRF-CEM leukemia = system: CCRF-CEM leukemia
SNB-19 CNS = system: SNB-19 CNS
SW-620 colon = system: SW-620 colon
SN12C renal = system: SN12C renal
M14 melanoma = system: M14 melanoma
NCI/ADR-RES ovarian = system: NCI/ADR-RES ovarian
OVCAR-4 ovarian = system: OVCAR-4 ovarian
HOP-92 NSCLC = system: HOP-92 NSCLC
HCC-2998 colon = system: HCC-2998 colon
EKVX NSCLC = system: EKVX NSCLC
SF-295 CNS = system: SF-295 CNS
K-562 leukemia = system: K-562 leukemia
MALME-3M melanoma = system: MALME-3M melanoma
MOLT-4 leukemia = system: MOLT-4 leukemia
RPMI-8226 leukemia = system: RPMI-8226 leukemia
TK-10 renal = system: TK-10 renal
COLO 205 colon = system: COLO 205 colon
SNB-75 CNS = system: SNB-75 CNS
UACC-257 melanoma = system: UACC-257 melanoma
OVCAR-3 ovarian = system: OVCAR-3 ovarian
MDA-MB-231 breast = system: MDA-MB-231 breast
SR leukemia = system: SR leukemia
MDA-MB-435 = system: MDA-MB-435
UO-31 renal = system: UO-31 renal
SF-539 CNS = system: SF-539 CNS
DU-145 prostate = system: DU-145 prostate
BT-549 breast = system: BT-549 breast
HCT-116 colon = system: HCT-116 colon
OVCAR-8 ovarian = system: OVCAR-8 ovarian
MCF7 breast = system: MCF7 breast
A549 NSCLC = system: A549 NSCLC
IGROV1 ovarian = system: IGROV1 ovarian
A498 renal = system: A498 renal
MDA-N = system: MDA-N
NCI-H460 lung = system: NCI-H460 lung
HT29 colon = system: HT29 colon
NCI-H226 lung = system: NCI-H226 lung
SK-MEL-28 melanoma = system: SK-MEL-28 melanoma
RXF 393 renal = system: RXF 393 renal
SK-MEL-2 melanoma = system: SK-MEL-2 melanoma
HCT-15 colon = system: HCT-15 colon
T-47D breast = system: T-47D breast
UACC-62 melanoma = system: UACC-62 melanoma
PC-3 prostate = system: PC-3 prostate
ACHN renal = system: ACHN renal
HL-60(TB) leukemia = system: HL-60(TB) leukemia

For `CN(C)CCn1c(=O)c2ccc(NCCNCCO)c3c(=O)c4cc(O)ccc4n(c1=O)c23`, the TGI (SK-MEL-5 melanoma) was 5.22 µM, the TGI (SK-OV-3 ovarian) was 46.7 µM and the TGI (HOP-62 NSCLC) was 4.16 µM. For the same compound, the TGI (OVCAR-5 ovarian) was 16.1 µM, the TGI (KM12 colon) was 26.6 µM and the TGI (SF-268 CNS) was 14.9 µM. The TGI (786-0 renal) was 13.2 µM, the TGI (HS 578T breast) was 11.4 µM and the TGI (NCI-H23 lung) was 3.64 µM. The TGI (NCI-H522 lung) was 3.58 µM, the TGI (LOX IMVI melanoma) was 4.42 µM and the TGI (U251 CNS) was 8.27 µM. For the same compound, the TGI (CCRF-CEM leukemia) was 2.05 µM, the TGI (SNB-19 CNS) was 10.8 µM and the TGI (SW-620 colon) was 11.2 µM. For the same compound, the TGI (SN12C renal) was 5.15 µM, the TGI (M14 melanoma) was 13.6 µM and the TGI (NCI/ADR-RES ovarian) was > 100 µM. It also gave a TGI (OVCAR-4 ovarian) of 3.55 µM, a TGI (HOP-92 NSCLC) of 4.56 µM and a TGI (HCC-2998 colon) of 2.18 µM. The TGI (EKVX NSCLC) was 14.3 µM, the TGI (SF-295 CNS) was 21.1 µM and the TGI (K-562 leukemia) was > 30.5 µM. The TGI (MALME-3M melanoma) was 17.1 µM, the TGI (MOLT-4 leukemia) was 1.17 µM and the TGI (RPMI-8226 leukemia) was 8.43 µM. The TGI (TK-10 renal) was 21.1 µM, the TGI (COLO 205 colon) was 4.6 µM and the TGI (SNB-75 CNS) was 6.2 µM. It also gave a TGI (UACC-257 melanoma) of 19.2 µM, a TGI (OVCAR-3 ovarian) of 19.3 µM and a TGI (MDA-MB-231 breast) of 3.37 µM. It also gave a TGI (SR leukemia) of 0.619 µM, a TGI (MDA-MB-435) of 6.53 µM and a TGI (UO-31 renal) of 28.2 µM. It also gave a TGI (SF-539 CNS) of 1.65 µM, a TGI (DU-145 prostate) of 4.97 µM and a TGI (BT-549 breast) of 32.4 µM. For the same compound, the TGI (HCT-116 colon) was 3.15 µM, the TGI (OVCAR-8 ovarian) was 7.47 µM and the TGI (MCF7 breast) was 6.23 µM. It also gave a TGI (A549 NSCLC) of 33.9 µM, a TGI (IGROV1 ovarian) of 7.47 µM and a TGI (A498 renal) of 25.7 µM. For the same compound, the TGI (MDA-N) was 7.49 µM, the TGI (NCI-H460 lung) was 4.51 µM and the TGI (HT29 colon) was 5.2 µM. It also gave a TGI (NCI-H226 lung) of 5.71 µM, a TGI (SK-MEL-28 melanoma) of 17 µM and a TGI (RXF 393 renal) of 3.73 µM. It also gave a TGI (SK-MEL-2 melanoma) of 6.85 µM, a TGI (HCT-15 colon) of 53.8 µM and a TGI (T-47D breast) of 13.3 µM. For the same compound, the TGI (UACC-62 melanoma) was 4.23 µM, the TGI (PC-3 prostate) was 25.1 µM and the TGI (ACHN renal) was 8.64 µM. It also gave a TGI (HL-60(TB) leukemia) of 4.61 µM.
